The results in this text go back to patent US11299715B2, “Use of iNOS inhibitors to increase viral yield in culture” (priority 2013, dated 2022).

One test relates to wtHSV-1 McIntyre strain. In words: wtHSV-1 McIntyre strain propagation in 293, HeLa and Vero cells with ATA. In kind it is cell-based, HSV-1. The source says: The wtHSV-1 KOS strain and the ICP27-deficient derivatives of the wtHSV-1 KOS strain: vectors d27-1 (Rice and Knipe, J. Virol. (1990) 64:1704-1715), rHSV-rep2/cap2 and rHSV-EGFP (Kang et al., Gene Ther. (2009) 16:229-239) and their producer ICP27-complementing V27 cell line were obtained from AGTC (Alachua, Fla.). The wtHSV-1 MacIntyre strain, purchased from Advanced Biotechnologies Inc. (ABI, Columbia Md.) and wtHSV-1 KOS strain were propagated in Vero, 293 or HeLa cell lines. Infectious vector particles were harvested 72 hr postinfection by recovering culture supernatant. The titers of HSV-1 stocks in DNase resistant particles/ml (DRP/ml) were determined by Taqman assay. Viral genomes within crude culture medium were quantified via treatment in the presence of DNase I (50 U/ml final; Promega) at 37° C. for 60 min, followed by proteinase K (Invitrogen) digestion (1 U/ml) at 50° C. for 60 min, and then denatured at 95° C. for 30 min. Linearized plasmid pZero 195 UL36 (obtained from AGTC, Inc., Alachua, Fla.) was used to generate standard curves.
ATA (Sigma-A1895 Aurintricarboxylic acid practical grade, ≥85% (titration), powder) stock solution was generated as 500 μM concentration in 100 mM sodium bicarbonate water solution. ATA stock solution was further diluted in DMEM+/−10% fetal bovine serum (FBS, Hyclone, Waltham, Mass.) into concentration ranges of […] ATA (8.5-21 μgATA/ml). The HSV-1 infection at multiplicity of infection of 0.15 (MOI=0.15) (typically 6×10^5 cells in a 6-well plate) was performed in 40% (⅖ vol) of the total final media volume for 1-2 hrs and the remaining media (60% or ⅗ of the total final volume) was added during the dilution step. The cells were then incubated 72 hours and supernatant harvested to perform forming units per milliliter (PFU/ml) and DRP/ml titer assays.
Supernatants containing virus were harvested after three days as described above. […] Finally, ATA also appeared to inhibit both types of HSV-1 viruses in HeLa cells. Two-way ANOVA; Bonferroni test; −ATA vs. +ATA: ***: p<0.001, ns: p>0.05; n=4 independent experiments.
For statistical calculations, a larger study with a set of ten independent experiments (n=10) was conducted in 6-well plates with or without ATA added during the infection step (Step 1) comparing replication-deficient d27-GFP and also wtHSV-1 McIntyre strain in order to investigate, whether ATA could increase the titer in the wtHSV-1 strain as well (FIG. 4B). ATA was added at […] to confluent cell monolayers, V27 cells for d27-1 or 293 cells for wtHSV-1 McIntyre, during the infection step (Step 1) and the cells were infected with vectors at MOI=0.15 while ATA was diluted 1 hr later to a final […] concentration.
In order to illuminate the ATA mechanism of action by human genome array and the fact that Vero and V27 are monkey-derived cell lines, wtHSV-1 propagation was tested in several human cell lines (FIGS. 4A-4B). A propagation of two wild type HSV-1 (wtHSV-1) strains, KOS and McIntyre, were compared in three cell lines: human embryonic kidney 293 (293 cells), human cervical cancer HeLa cells and African green monkey kidney epithelial Vero cells. The experiments were carried out in 10% FBS-containing media following the ATA I protocol scheme, where 50 μM ATA was supplemented during the infection step and further diluted to 20 μM ATA concentration (see Material and Methods).

A further test relates to iNOS. In words: Western blot of iNOS in HSV-1 d27.1-infected V27 cell lysates. Type of test: cell-based, African green monkey. As to conditions: 30 μM ATA; d27.1 MOI 1; V27 lysates 24 h.p.i.; with or without 10% FBS. The method, then: V27 cells in Dulbecco's Modified Eagles Medium (DMEM) (Hyclone, Waltham, Mass.) were infected with the HSV-1 d27.1 vector at an MOI of 1 and treated with 30 μM ATA (Sigma, St. Louis, Mo.), with or without 10% fetal bovine serum (FBS). Control experiments without ATA were also performed. V27 cell lysates were obtained 24 hours post infection (h.p.i.) and Western blots were run on the lysates and iNOS protein was detected by using purified rabbit anti-iNOS/NOS Type II pAb (BD Biosciences, Cat#610332).

As to `O=C(O)C1=CC(=C(c2ccc(O)c(C(=O)O)c2)c2ccc(O)c(C(=O)O)c2)C=CC1=O` [ATA, 5-((3-carboxy-4-hydroxyphenyl)(3-carboxy-4-oxo-2,5-cyclohexadien-1-ylidene)methyl)-2-hydroxybenzoic acid], the “wtHSV-1 McIntyre titers in 293 cells” value in the test with wtHSV-1 McIntyre strain (50 μM ATA at Step 1, 20 μM after Step 2, 293 cells) was “reached the highest titers”. For the same compound, in the test on wtHSV-1 McIntyre strain (50 μM ATA at Step 1, 20 μM after Step 2, HeLa cells), the “propagation of HSV-1 McIntyre in HeLa cells” value is “inhibit”. In the test with wtHSV-1 McIntyre strain (50 μM ATA at Step 1, 20 μM after Step 2, Vero cells, 10% FBS), the “yield of wtHSV-1 McIntyre in Vero cells” value was “increased”. For the same compound, the “wtHSV-1 McIntyre virus titer in 293 cells” value in the test with wtHSV-1 McIntyre strain (50 μM ATA at infection, diluted to 20 μM, 10% FBS, n=4, without ATA 1.4×10^8) is on record as 1.2×10^9 DRP/ml. Besides, in the test on wtHSV-1 McIntyre strain (293 cells, 6-well plates, n=10, ATA 50 μM at Step 1, final 20 μM, MOI 0.15), the “increase of wtHSV-1 McIntyre titer after ATA addition” value was 9.1 times. Also, the “wtHSV-1 McIntyre titer after ATA addition” value in the test with wtHSV-1 McIntyre strain (293 cells, n=10, ATA 50 μM at Step 1, final 20 μM, without ATA 3.3×10^8) is 1.0×10^9 DRP/ml. Also, in the test with wtHSV-1 McIntyre strain (summary statement), the “293 or Vero titers with ATA, McIntyre” value is on record as “up to 1×10^9 DRP/ml” and the “increase of wt HSV-1 McIntyre yields” value came to 1 log. For the same compound, the “iNOS expression (Western blot)” value in the test on iNOS was “inhibits”.
